Assay results taken from patent US20220096597A1, “CARDIO-PROTECTIVE EFFECT OF VASOCONSTRICTION-INHIBITING FACTOR (VIF)” (Rheinisch-Westfälische Technische Hochschule Aachen (RWTH), priority 2019, published 2022).
Ends that are not written are not given here.

Test system: C57BL/6N mice with induced myocardial infarction
Assay: Histology and immunohistochemistry of hearts after induced infarction
Type: in vivo
Details: infarcted mouse heart, up to 28 days; FIG. 6A and 6C
Method: To further study the newly identified effects of VIF (according to SEQ ID NO: 1), and especially in vivo, 8 to 10 week old wild type male C57BL/6N mice (Charles River, Germany) were intubated under anesthesia (100 mg/kg ketamine, 10 mg/kg xylazine, i.p.) and analgesia (0.1 mg/kg buprenorphine). The mice were ventilated with positive pressure and oxygenation using a rodent respirator (Harvard Apparatus, Germany). […]
A Gömöri trichrome staining was performed to determine the infarct size. Subsequently, three slices per mouse from 3 to 5 different mice were analyzed using ImageJ. after one of anti-SMA antibody (smooth muscle actin, DAKO, FIG. 6D), anti-MAC3 antibody (BD Pharmingen, FIG. 6B), anti-MPO antibody (Neomarkers, FIG. 6A) and anti-CD31 antibody (Santa Cruz Biotechnology, FIG. 6E) staining, followed by staining with fluorescein isothiocyanate (FITC)—or a Cy3-conjugated secondary antibody (DAKO, Germany). Positively stained cells or double-positive stained cells (FIG. 6C for anti-MAC3/MPO) were counted in three different fields per slice and expressed as cells per field of view (200× magnification).

“HSGFEDELSEVLENQSSQAELKEAVEEPSSKDVME [VIF]” was tested, and the “infiltration of neutrophils (anti-MPO) compared to non-treated controls” value was “does not lead to an increased infiltration of neutrophils”.
